Article PMC8151276, “An Integrated Approach toward NanoBRET Tracers for Analysis of GPCR Ligand Engagement” (Molecules, 2021)

Tests used:
Format in all cases: binding
GALR2 = target: T1, GALR2 (Homo sapiens, UniProt O43603); experiment: NanoBRET screen HiBiT-GALR2 in HEK293
T1 construct: purchased Promega (in-house HiBiT-GPCR construct library, NanoBRET)
T1 sequence (O43603 1-387): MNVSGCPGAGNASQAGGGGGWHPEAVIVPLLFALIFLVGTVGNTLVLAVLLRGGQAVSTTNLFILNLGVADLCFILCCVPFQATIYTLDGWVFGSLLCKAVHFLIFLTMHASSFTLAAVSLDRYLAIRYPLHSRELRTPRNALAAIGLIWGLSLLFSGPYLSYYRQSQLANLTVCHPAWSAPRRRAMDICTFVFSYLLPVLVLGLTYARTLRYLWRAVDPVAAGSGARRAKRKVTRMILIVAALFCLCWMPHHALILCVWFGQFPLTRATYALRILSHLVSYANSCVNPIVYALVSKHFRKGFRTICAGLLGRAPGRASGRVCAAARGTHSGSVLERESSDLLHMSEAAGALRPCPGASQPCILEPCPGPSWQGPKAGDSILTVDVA
Protocol: (§1) Each tracer candidate was screened across the entire library of HiBiT-GPCR constructs using NanoBRET as the detection modality. As depicted in Figure 4A, the specificity of interactions was evaluated through decrease in BRET due to competitive displacement of a bound tracer by excess parental compound. Each tracer was analyzed for binding to each HiBiT-GPCR fusion in the absence and in the presence of competing parental compound. Briefly, HEK293 cells were transfected with HiBiT-GPCR constructs diluted into promoterless DNA to reduce expression and maximize translocation to the cell surface. Each tracer candidate was then screened at concentrations of 1 μM and 0.1 μM across cells expressing these fusions. Cells were treated for 1.5 h with tracer either alone or in the presence of 20 μM competing parental compound (i.e., control). BRET was measured upon addition of purified LgBiT and subsequent complementation with HiBiT genetically fused to a GPCR. The specificity of interactions was assessed through a decrease in BRET signal due to competitive displacement of the bound tracer. To further gauge the robustness of these interactions, the fold response over the control (i.e., BRETtracer/BRETcontrol) was calculated. We chose a 1.5-fold response, which translates to ≥7-fold signal over noise as the minimal threshold required to score an interaction as positive. […]. Below we highlight the screening results obtained for our exemplary fluorescent tracers based on Clozapine, Amitriptyline and AZD1283.
(§2) HiBiT-GPCR DNA constructs were diluted in 10 mM Tris pH 8 to a final concentration of 0.01 μg/μL, arrayed in 96-well plates and stored at −20 °C. For transfection, HEK293 cells were suspended in Opti-MEM (without phenol red) supplemented with 2% fetal bovine serum (Seradigm) and 100 units/mL penicillin–streptomycin (Gibco) at a final concentration of 220,000 cells/mL and dispensed into white 96-well plates at 90 μL/well. Subsequent transfections and screens were carried using an Agilent Bravo Automated Liquid Handling Platform. First, the 96-well HiBiT DNA arrays were diluted 25-fold in Opti-MEM (without serum or phenol red) to a final concentration of 0.0004 μg/μL and 20 μL of the diluted DNAs were transferred into new 96-well plates. Next, promoterless carrier DNA (1 μg/μL) was diluted 25-fold (0.04 μg/μL) and then dispensed into the diluted arrays at 20 μL/well. Following brief mixing, Viafect transfection reagent (Promega) diluted 16-fold into Opti-MEM was dispensed into the plates at 40 μL/well. After mixing by pipetting, plates were incubated for 10 min on the pipetting station deck. The DNA-transfection reagent complexes were then added to plates containing cells. To facilitate the screen, 10 μL of DNA-transfection reagent complexes were added in duplicates to the top 4 and bottom 4 rows, resulting in two identical 48-well arrays per plate. Plates with transfected cells were incubated for 18–20 h at 37 °C/5% CO2. A screen of each tracer across the entire library using two different concentrations requires duplicate plates of transfected cells. Depending on the number of tracers being screened, transfections can be scaled up using the same ratios. The next day, for each tracer, four 20× screening solutions in tracer dilution buffer (Promega) were prepared: two duplicates at final concentration of 20 μM and two duplicates at a final concentration of 2 μM. A competing unmodified compound was added to one of each duplicate at a final concentration of 400 μM. The four resulting solutions were diluted 4-fold in Opti-MEM without serum or phenol red to generate 5× solutions (5 µM and 0.5 µM tracer +/− 100 μM competing compound). To screen the library, a BioTek MultiFlo FX liquid dispenser was used to dispense 22.5 µL of tracer solution to the top 4 rows and 22.5 µL tracer + competing compound solution to the 4 bottom rows. Plates were briefly mixed on an orbital shaker and incubated for 1.5 h at room temperature. […]

GRM5 = target: T2, GRM5 (Homo sapiens, UniProt P41594); experiment: NanoBRET screen HiBiT-GRM5 in HEK293
T2 construct: purchased Promega (in-house HiBiT-GPCR construct library, NanoBRET)
T2 sequence (P41594 21-1212): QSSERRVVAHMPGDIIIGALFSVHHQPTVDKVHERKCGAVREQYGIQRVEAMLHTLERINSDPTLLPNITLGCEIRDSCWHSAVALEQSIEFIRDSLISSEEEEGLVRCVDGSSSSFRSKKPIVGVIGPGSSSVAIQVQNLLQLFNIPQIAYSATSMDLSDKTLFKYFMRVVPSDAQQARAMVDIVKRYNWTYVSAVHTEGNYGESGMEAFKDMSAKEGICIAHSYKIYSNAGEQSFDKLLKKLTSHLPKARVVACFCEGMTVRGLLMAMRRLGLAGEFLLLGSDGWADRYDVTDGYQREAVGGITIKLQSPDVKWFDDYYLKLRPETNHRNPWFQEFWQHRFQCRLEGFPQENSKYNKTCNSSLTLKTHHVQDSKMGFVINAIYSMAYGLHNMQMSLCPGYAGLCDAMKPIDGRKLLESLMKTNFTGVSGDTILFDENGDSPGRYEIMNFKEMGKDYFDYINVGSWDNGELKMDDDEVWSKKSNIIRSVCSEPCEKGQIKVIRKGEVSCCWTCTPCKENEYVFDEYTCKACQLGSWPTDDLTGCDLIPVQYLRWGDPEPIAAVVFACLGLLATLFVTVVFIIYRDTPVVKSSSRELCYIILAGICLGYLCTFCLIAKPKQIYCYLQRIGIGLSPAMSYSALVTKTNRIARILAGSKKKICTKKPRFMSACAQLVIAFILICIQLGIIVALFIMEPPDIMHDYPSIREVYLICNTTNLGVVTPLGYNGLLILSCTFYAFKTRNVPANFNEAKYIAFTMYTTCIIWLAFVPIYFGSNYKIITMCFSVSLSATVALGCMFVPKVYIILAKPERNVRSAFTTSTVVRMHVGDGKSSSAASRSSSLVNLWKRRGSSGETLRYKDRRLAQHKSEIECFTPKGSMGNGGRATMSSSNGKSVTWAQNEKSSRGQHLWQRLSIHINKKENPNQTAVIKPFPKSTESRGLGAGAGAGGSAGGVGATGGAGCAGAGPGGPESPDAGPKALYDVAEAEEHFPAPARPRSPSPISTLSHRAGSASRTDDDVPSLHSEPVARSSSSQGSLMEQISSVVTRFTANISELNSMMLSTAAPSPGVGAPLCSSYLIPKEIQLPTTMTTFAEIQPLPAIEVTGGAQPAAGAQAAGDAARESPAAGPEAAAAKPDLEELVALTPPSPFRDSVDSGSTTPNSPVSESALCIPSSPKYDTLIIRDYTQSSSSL
Protocol: as §1, §2

BDKRB1 = target: T3, BDKRB1 (Homo sapiens, UniProt P46663); experiment: NanoBRET screen HiBiT-BDKRB1 in HEK293
T3 construct: purchased Promega (in-house HiBiT-GPCR construct library, NanoBRET)
T3 sequence (P46663 1-353): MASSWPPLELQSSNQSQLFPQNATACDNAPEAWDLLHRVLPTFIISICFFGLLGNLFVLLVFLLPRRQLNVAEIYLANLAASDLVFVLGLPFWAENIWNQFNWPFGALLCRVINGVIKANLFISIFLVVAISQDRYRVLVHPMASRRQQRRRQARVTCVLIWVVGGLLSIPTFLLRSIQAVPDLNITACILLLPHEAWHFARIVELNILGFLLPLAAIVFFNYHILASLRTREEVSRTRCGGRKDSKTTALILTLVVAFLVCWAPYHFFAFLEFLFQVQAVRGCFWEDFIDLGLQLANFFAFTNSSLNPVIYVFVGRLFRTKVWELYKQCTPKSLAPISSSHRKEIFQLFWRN
Protocol: as §1, §2

ADORA1 = target: T4, ADORA1 (Homo sapiens, UniProt P30542); experiment: NanoBRET screen HiBiT-ADORA1 in HEK293
T4 construct: purchased Promega (in-house HiBiT-GPCR construct library, NanoBRET)
T4 sequence (P30542 1-326): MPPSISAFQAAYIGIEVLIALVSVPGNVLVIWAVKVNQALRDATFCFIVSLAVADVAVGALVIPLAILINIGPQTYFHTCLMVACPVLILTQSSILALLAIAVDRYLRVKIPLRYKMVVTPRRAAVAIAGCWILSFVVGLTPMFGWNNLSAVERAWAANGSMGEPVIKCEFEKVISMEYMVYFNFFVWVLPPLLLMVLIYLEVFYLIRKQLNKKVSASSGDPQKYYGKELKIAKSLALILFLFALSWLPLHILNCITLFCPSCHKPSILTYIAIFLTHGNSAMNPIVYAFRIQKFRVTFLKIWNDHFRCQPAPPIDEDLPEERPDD
Protocol: as §1, §2

[1] = tracer at 0.1μM, listed as amitriptyline-b-2-NB590
[2] = tracer at 1μM, listed as amitriptyline-b-2-NB590

SMILES	NanoBRET Fold Response (GALR2; GALR2, tracer 0.1μM)	NanoBRET Fold Response (GALR2; GALR2, tracer 1μM)	NanoBRET Fold Response (GRM5; GRM5, tracer 0.1μM)	NanoBRET Fold Response (GRM5; GRM5, tracer 1μM)	NanoBRET Fold Response (BDKRB1; BDKRB1, tracer 0.1μM)	NanoBRET Fold Response (BDKRB1; BDKRB1, tracer 1μM)	NanoBRET Fold Response (ADORA1; ADORA1, tracer 0.1μM)	NanoBRET Fold Response (ADORA1; ADORA1, tracer 1μM)	other results
CC(C)N(CC[C@H](c1ccccc1)c1cc(CCNC(=O)CCOCCOCCOCCOCCNC(=O)CCc2ccc3n2[B-](F)(F)[N+]2=C(c4ccc[nH]4)C=CC2=C3)ccc1O)C(C)C [Tolterodine-2-NB590]	0.97	1.09	0.99	0.87	0.99	0.79	0.95	0.99	
CN1CCN(C2=Nc3cc(Cl)ccc3N(CC(=O)NCCOCCOCCOCCOCCNC(=O)CCc3ccc4n3[B-](F)(F)[N+]3=C(c5ccc[nH]5)C=CC3=C4)c3ccccc32)CC1 [Clozapine-c-2-NB590]									NanoBRET Fold Response (GALR2; GALR2, 0.1μM tracer): 1.00; NanoBRET Fold Response (GALR2; GALR2, 1μM tracer): 1.05; NanoBRET Fold Response (GRM5; GRM5, 0.1μM tracer): 0.99; NanoBRET Fold Response (GRM5; GRM5, 1μM tracer): 1.12; NanoBRET Fold Response (BDKRB1; BDKRB1, 0.1μM tracer): 1.06; NanoBRET Fold Response (BDKRB1; BDKRB1, 1μM tracer): 1.07; NanoBRET Fold Response (ADORA1; ADORA1, 0.1μM tracer): 1.00; NanoBRET Fold Response (ADORA1; ADORA1, 1μM tracer): 0.87
N#CN=C(NCCCOc1cccc(CN2CCCCC2)c1)NCCNC(=O)CCOCCOCCOCCOCCNC(=O)CCc1ccc2n1[B-](F)(F)[N+]1=C(c3ccc[nH]3)C=CC1=C2 [Aminopotentidine-2-NB590]	0.94	0.99	1.01	0.98	1.01	1.02	1.04	1.01	
COc1ccc2c(n1)c(CCNC(C)=O)cn2CCNC(=O)CCc1ccc2n1[B-](F)(F)[N+]1=C(c3ccc[nH]3)C=CC1=C2 [Azamelatonin-1-NB590]									NanoBRET Fold Response (GALR2; 0.1μM tracer): 0.91; NanoBRET Fold Response (GALR2; 1μM tracer): 1.23; NanoBRET Fold Response (GRM5; 0.1μM tracer): 0.84; NanoBRET Fold Response (GRM5; 1μM tracer): 0.95; NanoBRET Fold Response (BDKRB1; 0.1μM tracer): 1.39; NanoBRET Fold Response (BDKRB1; 1μM tracer): 0.74; NanoBRET Fold Response (ADORA1; 0.1μM tracer): 0.87; NanoBRET Fold Response (ADORA1; 1μM tracer): 0.95
CC(C)N(CC[C@H](c1ccccc1)c1cc(CCNC(=O)c2ccc(CNC(=O)CCc3ccc4n3[B-](F)(F)[N+]3=C(c5ccc[nH]5)C=CC3=C4)cc2)ccc1O)C(C)C [Tolterodine-BZ-NB590]	0.99	1.08	1.00	1.05	1.02	0.85	1.18	1.02	
O=C(CCc1ccc2n1[B-](F)(F)[N+]1=C(c3ccc[nH]3)C=CC1=C2)NCCOCCOCCNC(=O)OCCOCCN1CCN(C2=Nc3ccccc3Sc3ccccc32)CC1 [Quetiapine-a-2-NB590]	1.01	0.83	1.08	1.05	1.42	0.65	1.30	1.07	
Cc1cc2c(s1)Nc1ccccc1N=C2N1CCN(CCCNC(=O)CCOCCOCCOCCOCCNC(=O)CCc2ccc3n2[B-](F)(F)[N+]2=C(c4ccc[nH]4)C=CC2=C3)CC1 [Olanzapine-a-2-NB590]	0.96	1.07	0.95	0.97	0.83	1.10	1.09	1.22	
CN(C)CCC=C1c2ccccc2CCc2ccc(C(=O)NCCNC(=O)CCOCCOCCOCCOCCNC(=O)CCc3ccc4n3[B-](F)(F)[N+]3=C(c5ccc[nH]5)C=CC3=C4)cc21 [Amitriptyline-b-2-NB590]			1.05	1.02					NanoBRET Fold Response (GALR2; [1]): 1.10; NanoBRET Fold Response (GALR2; [2]): 1.11; NanoBRET Fold Response (BDKRB1; [1]): 1.14; NanoBRET Fold Response (BDKRB1; [2]): 1.33; NanoBRET Fold Response (ADORA1; [2]): 1.01
O=C(CCOCCOCCOCCOCCNC(=O)CCc1ccc2n1[B-](F)(F)[N+]1=C(c3ccc[nH]3)C=CC1=C2)NCCCN1CCN(C2=Nc3cc(Cl)ccc3Nc3ccccc32)CC1 [Clozapine-a-2-NB590]									NanoBRET Fold Response (GALR2; GALR2, 0.1μM tracer): 1.09; NanoBRET Fold Response (GALR2; GALR2, 1μM tracer): 1.19; NanoBRET Fold Response (GRM5; GRM5, 0.1μM tracer): 0.99; NanoBRET Fold Response (GRM5; GRM5, 1μM tracer): 1.10; NanoBRET Fold Response (BDKRB1; BDKRB1, 0.1μM tracer): 1.02; NanoBRET Fold Response (BDKRB1; BDKRB1, 1μM tracer): 1.37; NanoBRET Fold Response (ADORA1; ADORA1, 0.1μM tracer): 1.00; NanoBRET Fold Response (ADORA1; ADORA1, 1μM tracer): 1.01
